Assays:
Test in all cases: relative viability (nuclei count vs DMSO), 5 days (fraction); higher = more cells survive
[1] = compound: COc1cc2ncn(-c3cc(OCc4ccccc4C(F)(F)F)c(C(N)=O)s3)c2cc1OC + C[C@@H](Oc1cc(-c2cnn(C3CCNCC3)c2)cnc1N)c1c(Cl)ccc(F)c1Cl [Crizotinib] (partner 1 µM)
Summary of the method: (§1)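 Lung cancer cell lines were pin-tool dosed in 1536-well plates on the day after seeding, with either a lone drug or a fixed anchor-drug dose plus five library-drug doses (not always all listed) in √10 steps. Nuclei were counted on 4× images after 5 days. Relative viability is the ratio of treated-well to vehicle-well nuclei counts, with each value a median of duplicate plates.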

[2] = compound: COc1cc2ncn(-c3cc(OCc4ccccc4C(F)(F)F)c(C(N)=O)s3)c2cc1OC + Cc1nc(Nc2ncc(C(=O)Nc3c(C)cccc3Cl)s2)cc(N2CCN(CCO)CC2)n1 [Dasatinib] (partner 0.075 µM)
Summary of the method: as §1

[3] = compound: COc1cc2ncn(-c3cc(OCc4ccccc4C(F)(F)F)c(C(N)=O)s3)c2cc1OC + CS(=O)(=O)N1CCN(Cc2cc3nc(-c4cccc5[nH]ncc45)nc(N4CCOCC4)c3s2)CC1 [Pictilisib] (partner 1 µM)
Summary of the method: as §1

[4] = compound: COc1cc2ncn(-c3cc(OCc4ccccc4C(F)(F)F)c(C(N)=O)s3)c2cc1OC + O=C(CCCCCCC(=O)Nc1ccccc1)NO [Vorinostat] (partner 1 µM)
Summary of the method: as §1

Cell Line	relative viability ([1]; first compound 0.05 µM)	relative viability ([1]; first compound 0.1581 µM)	relative viability ([1]; first compound 0.5 µM)	relative viability ([1]; first compound 1.581 µM)	relative viability ([1]; first compound 5 µM)	relative viability ([2]; first compound 0.05 µM)	relative viability ([2]; first compound 0.1581 µM)	relative viability ([2]; first compound 0.5 µM)	relative viability ([2]; first compound 1.581 µM)	relative viability ([2]; first compound 5 µM)	relative viability ([3]; first compound 0.05 µM)	relative viability ([3]; first compound 0.1581 µM)	relative viability ([3]; first compound 0.5 µM)	relative viability ([3]; first compound 1.581 µM)	relative viability ([3]; first compound 5 µM)	relative viability ([4]; first compound 0.05 µM)	relative viability ([4]; first compound 0.1581 µM)	relative viability ([4]; first compound 0.5 µM)	relative viability ([4]; first compound 1.581 µM)	relative viability ([4]; first compound 5 µM)
NCI-H647	1.01	0.788	0.224	0.113	0.108	0.216	0.144	0.0412	0.0467	0.0528	0.441	0.425	0.413	0.0779	0.057	0.326	0.489	0.113	0.0523	0.0497
NCI-H650	0.714	0.684	0.4	0.15	0.289	0.468	0.429	0.32	0.166	0.261	0.959	0.781	0.642	0.224	0.396	0.425	0.438	0.279	0.137	0.143
NCI-H661	0.869	0.937	0.85	0.572	0.855	0.986	0.779	0.312	0.293	0.171	0.486	0.328	0.458	0.259	0.257	0.843	0.753	0.293	0.269	0.223
NCI-H727	0.707	0.901	0.58	0.247	0.266	0.383	0.349	0.362	0.225	0.329	0.392	0.373	0.403	0.245	0.188	1.28	1.14	0.673	0.579	0.591
NCI-H838	1.02	0.932	0.492	0.124	0.111	0.302	0.291	0.224	0.255	0.156	0.514	0.519	0.478	0.14	0.0851	0.577	0.801	0.477	0.13	0.132
NCI-H1355	1.08	1.03	0.768	0.258	0.157	0.707	0.739	0.491	0.163	0.143	0.499	0.399	0.385	0.182	0.151	0.592	0.624	0.457	0.154	0.13
NCI-H1437	1.03	0.812	0.659	0.164	0.101	0.412	0.356	0.322	0.162	0.104	0.533	0.392	0.307	0.0976	0.0782	0.717	0.779	0.367	0.334	0.326
NCI-H1650	1.03	1.03	0.765	0.17	0.194	0.329	0.305	0.268	0.142	0.145	0.52	0.615	0.322	0.156	0.146	0.484	0.555	0.36	0.154	0.133

Reference: the supplement of paper PMC10307832
